# Test system: 323965-272-R-J2-PDC complex spheroid growth, % test/control
# Experiment: Anticancer human tumor 323965-272-R-J2-PDC patient-derived pancreatic carcinoma cell line growth inhibition [Asc]
# Details: for IC50: curve of first compound; for viability, T/C: stronger effect = lower value
# Description: Multicellular complex tumor spheroid response to apoptosis pathway targeting inhibitors Alrizomadlin, Pelcitoclax, and Dasminapant in combination with a variety of drugs and investigational agents in selected tumor cell lines
# The MDM2 inhibitor alrizomadlin, the Bcl-2/Bcl-xL inhibitor pelcitoclax, and the IAPs inhibitor dasminapant were evaluated both individually and in combination with standard of care and investigational anticancer small molecules within a complex spheroid model of solid tumors. . Complex spheroids include a stromal component modeled by human endothelial cells (HUVEC) and fibroblasts modeled by human mesenchymal stem cells (MSCs). The concentration ranges selected for each drug and investigational agent were based upon clinically achievable concentrations if the clinical Cmax of the agent was known.
# Compounds. The drugs and investigational agents: alrizomadlin (APG-115; NSC831270), pelcitoclax (APG-1252; NSC835773), dasminapant (APG-1387;NSC834197), TAK-243 (NSC785004), copanlisib (NSC809693), olaparib (NSC753686), talazoparib (NSC767125), cobimetinib (NSC 768068), eltanexor (KPT-8602, NSC 794443), abemaciclib (NSC 768073), sotorasib (NSC818433), adagrasib (NSC 831453), MRTX-1133 (NSC 836407), Iadademestat (ORY1001, NSC 806812), and RMC-4630 (NSC839698), were obtained from the NCI Developmental Therapeutics Program Chemical Repository. The FDA-approved anticancer drug set is available from the Developmental Therapeutics Program at https://dtp.cancer.gov/organization/dscb/obtaining/available plates.htm. […] The stock solutions were prepared in dimethyl sulfoxide (DMSO, Sigma-Aldrich, St. Louis, MO, cat. D2650) at 800-fold the tested concentration and stored at -70 degrees C prior to their use. All drugs and investigational agents were tested over a range starting from a high concentration at or near the clinical Cmax and decreasing in half-log increments. If the clinical Cmax for an agent had not been determined, the highest concentration tested was 10 microM.
# The patient-derived cancer (PDC) cell lines include five colon adenocarcinomas: 186277-243-T-J2-PDC, 616215-338-R-J1-PDC, 439559-082-T-J2-PDC, 463943-066-T-J2-PDC, and 519858-162-T-J1-PDC; three pancreatic carcinomas: 323965-272-R-J2-PDC, 521955-158-R6-J3-PDC, and 521955-158-R2-J5-PDC; two uterine sarcomas: 327498-152-R-J2-PDC and 993429-296-R-J1-PDC; two rhabdomyosarcomas: 755483-174-R-J1-PDC and 772245-204-R-J1-PDC; two soft tissue sarcomas: 126254-015-R-J1-PDC and 494315-158-R-J1-PDC; two malignant fibrous histiocytomas: 317291-083-R-J1-PDC and 596521-263-R-J1-PDC; two breast carcinomas: 171881-019-R-J1-PDC and 885512-296-R-J2-PDC; and one ovarian carcinoma: 6556581-035-R-J-PDC were obtained from the NCI PDMR, (https://pdmr.cancer.gov). The established cell lines HSSY-2 synovial sarcoma (RRID:CVCL 8719), SYO-1 synovial sarcoma (RRID:CVCL_7146), MPNST malignant peripheral neural sheath tumor were obtained from the Sloan Kettering Institute. The following established cell lines were purchased from the American Type Culture Collection (ATCC, Manassas, VA), Sor the received from the NCI repository:, PANC-1 pancreatic carcinoma (CRL-1469, RRID:CVCL_0480), OVCAR-5 ovarian carcinoma (RRID:CVCL_1628), OVCAR-8 ovarian carcinoma (RRID:CVCL_1629), , MCF-7 breast carcinoma (CRL-12584, RRID:CVCL_0031), MDA-MB-231 breast carcinoma (CRL-12532, RRID:CVCL_0062), NCI-H1876 small cell lung carcinoma (CRL-5902, RRID:CVCL_1503), NCI-H510A small cell lung carcinoma (HTB-184, RRID:CVCL_1565), NCI-H1417 (CRL-5869, RRID:CVCL_1469), and NCI-H196 small cell lung carcinoma (CRL-5823, RRID:CVCL_1509). Dr. Peter Houghton (Greehey Children's Cancer Research Institute, University of Texas Health Science Center, San Antonio, TX) provided Rh-18 rhabdomyosarcoma (RRID:CVCL_1659). Pooled donor human umbilical vein endothelial cells (HUVEC, Lonza, cat. CC-2519) and human mesenchymal stem cells (hMSC, Lonza, cat. PT-2501) were purchased from Lonza (Walkersville, MD).
# Cell Culture. […]
# [1] = second compound 0.0316 µM, first compound 0.00949 µM
# [2] = second compound 0.0316 µM, first compound 0.03 µM
# [3] = second compound 0.0316 µM, first compound 0.0949 µM
# [4] = second compound 0.0316 µM, first compound 0.3 µM
# [5] = second compound 0.0316 µM, first compound 0.949 µM
# [6] = second compound 0.0316 µM, first compound 3 µM
# [7] = second compound 0.1 µM, first compound 0.00949 µM
# [8] = second compound 0.1 µM, first compound 0.03 µM
# [9] = second compound 0.1 µM, first compound 0.0949 µM
# [10] = second compound 0.1 µM, first compound 0.3 µM
# [11] = second compound 0.1 µM, first compound 0.949 µM
# [12] = second compound 0.1 µM, first compound 3 µM
# [13] = second compound 0.316 µM, first compound 0.00949 µM
# [14] = second compound 0.316 µM, first compound 0.03 µM
# [15] = second compound 0.316 µM, first compound 0.0949 µM
# [16] = second compound 0.316 µM, first compound 0.3 µM
# [17] = second compound 0.316 µM, first compound 0.949 µM
# [18] = second compound 0.316 µM, first compound 3 µM
# [19] = second compound 1 µM, first compound 0.00949 µM
# [20] = second compound 1 µM, first compound 0.03 µM
# [21] = second compound 1 µM, first compound 0.0949 µM
# [22] = second compound 1 µM, first compound 0.3 µM
# [23] = second compound 1 µM, first compound 0.949 µM
# [24] = second compound 1 µM, first compound 3 µM
# 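Note: compound exposure lasted 7 days starting three days after spheroid seeding.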
# 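Throughout, for viability, T/C: 100% = DMSO vehicle control wells with viability set relative to vehicle.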
compound,measurement,setting,value
CCN1C(C(=O)NC23CCC(C(=O)O)(CC2)CC3)C(c2cccc(Cl)c2F)C2(C(=O)Nc3cc(Cl)ccc32)C12CCCCC2 (centres undefined) + Cc1c(S(C)(=O)=O)c(-c2cc(F)cc(N3CCN(c4ccc(NS(=O)(=O)c5ccc(NC(CCN6CCC(C(=O)OCCCP(=O)(O)O)CC6)CSc6ccccc6)c(S(=O)(=O)C(F)(F)F)c5)cc4)CC3)c2)c(-c2ccc(Cl)cc2)n1C(C)C,IC50,second compound 0.0316 µM,> 3000 nM
same,IC50,second compound 0.1 µM,> 3000 nM
same,IC50,second compound 0.316 µM,> 3000 nM
same,IC50,second compound 1 µM,> 3000 nM
same,IC50,second compound 3.16 µM,1870 nM
same,IC50,second compound 10 µM,1180 nM
same,"viability, T/C",[1],117%
same,"viability, T/C",[2],103%
same,"viability, T/C",[3],88.5%
same,"viability, T/C",[4],101%
same,"viability, T/C",[5],98.8%
same,"viability, T/C",[6],93.8%
same,"viability, T/C",[7],110%
same,"viability, T/C",[8],94.2%
same,"viability, T/C",[9],104%
same,"viability, T/C",[10],101%
same,"viability, T/C",[11],88.4%
same,"viability, T/C",[12],81.8%
same,"viability, T/C",[13],89.4%
same,"viability, T/C",[14],97.9%
same,"viability, T/C",[15],94.5%
same,"viability, T/C",[16],87.1%
same,"viability, T/C",[17],90%
same,"viability, T/C",[18],65.3%
same,"viability, T/C",[19],95.3%
same,"viability, T/C",[20],81.8%
same,"viability, T/C",[21],86.5%
same,"viability, T/C",[22],80.3%
same,"viability, T/C",[23],81.8%
same,"viability, T/C",[24],54%
same,"viability, T/C","second compound 3.16 µM, first compound 0.00949 µM",70.6%
same,"viability, T/C","second compound 3.16 µM, first compound 0.03 µM",76.3%
same,"viability, T/C","second compound 3.16 µM, first compound 0.0949 µM",75.9%
same,"viability, T/C","second compound 3.16 µM, first compound 0.3 µM",69.4%
same,"viability, T/C","second compound 3.16 µM, first compound 0.949 µM",64.7%
same,"viability, T/C","second compound 3.16 µM, first compound 3 µM",40.1%
same,"viability, T/C","second compound 10 µM, first compound 0.00949 µM",71.7%
same,"viability, T/C","second compound 10 µM, first compound 0.03 µM",67%
same,"viability, T/C","second compound 10 µM, first compound 0.0949 µM",71.9%
same,"viability, T/C","second compound 10 µM, first compound 0.3 µM",62.1%
same,"viability, T/C","second compound 10 µM, first compound 0.949 µM",54.2%
same,"viability, T/C","second compound 10 µM, first compound 3 µM",34%
Cc1nc(N2CCC3(CC2)COC(C)C3N)c(CO)nc1Sc1ccnc(N)c1Cl (centres undefined) + CNC(C)C(=O)NC1CN(S(=O)(=O)c2cccc(S(=O)(=O)N3CCC4CCC(C(=O)NC(c5ccccc5)c5ccccc5)N4C(=O)C(NC(=O)C(C)NC)C3)c2)CCC2CCC(C(=O)NC(c3ccccc3)c3ccccc3)N2C1=O,IC50,second compound 0.00316 µM,1000 nM
same,IC50,second compound 0.01 µM,> 3000 nM
same,IC50,second compound 0.0316 µM,> 3000 nM
same,IC50,second compound 0.1 µM,1480 nM
same,IC50,second compound 0.316 µM,1520 nM
same,IC50,second compound 1 µM,967 nM
same,"viability, T/C","second compound 0.00316 µM, first compound 0.00949 µM",109%
same,"viability, T/C","second compound 0.00316 µM, first compound 0.03 µM",84.6%
same,"viability, T/C","second compound 0.00316 µM, first compound 0.0949 µM",71.8%
same,"viability, T/C","second compound 0.00316 µM, first compound 0.3 µM",55.7%
same,"viability, T/C","second compound 0.00316 µM, first compound 0.949 µM",52.4%
same,"viability, T/C","second compound 0.00316 µM, first compound 3 µM",43.9%
same,"viability, T/C","second compound 0.01 µM, first compound 0.00949 µM",99.4%
same,"viability, T/C","second compound 0.01 µM, first compound 0.03 µM",94.3%
same,"viability, T/C","second compound 0.01 µM, first compound 0.0949 µM",66%
same,"viability, T/C","second compound 0.01 µM, first compound 0.3 µM",62%
same,"viability, T/C","second compound 0.01 µM, first compound 0.949 µM",52.6%
same,"viability, T/C","second compound 0.01 µM, first compound 3 µM",47.7%
same,"viability, T/C",[1],110%
same,"viability, T/C",[2],97.4%
same,"viability, T/C",[3],80%
same,"viability, T/C",[4],58.1%
same,"viability, T/C",[5],57.9%
same,"viability, T/C",[6],49%
same,"viability, T/C",[7],93.9%
same,"viability, T/C",[8],96.6%
same,"viability, T/C",[9],80.9%
same,"viability, T/C",[10],65.6%
same,"viability, T/C",[11],51.2%
same,"viability, T/C",[12],47.4%
same,"viability, T/C",[13],97.7%
same,"viability, T/C",[14],85%
same,"viability, T/C",[15],86.7%
same,"viability, T/C",[16],60.5%
same,"viability, T/C",[17],58.2%
same,"viability, T/C",[18],42.3%
same,"viability, T/C",[19],84.8%
same,"viability, T/C",[20],80.4%
same,"viability, T/C",[21],71.9%
same,"viability, T/C",[22],62%
same,"viability, T/C",[23],50.1%
same,"viability, T/C",[24],39.8%

# Reference: PubChem BioAssay AID1963425 (Molecular Pharmacology Branch, DTP, NCI, 2024)
